Assays:
Type in all cases: cell-based
A549/ATCC = experiment: NCI COMPARE panel (SRB growth inhibition), A549/ATCC; conditions: Homo sapiens, Non-Small Cell Lung Cancer, 48 h
Method: (§1) The human tumor cell lines of the cancer screening panel are grown in RPMI 1640 medium containing 5% fetal bovine serum and 2 mM L-glutamine. For a typical screening experiment, cells are inoculated into 96 well microtiter plates in 100 µL at plating densities ranging from 5,000 to 40,000 cells/well depending on the doubling time of individual cell lines. After cell inoculation, the microtiter plates are incubated at 37° C., 5% CO2, 95% air and 100% relative humidity for 24 h prior to addition of experimental drugs.
(§2) After 24 h, two plates of each cell line are fixed in situ with TCA, to represent a measurement of the cell population for each cell line at the time of drug addition (Tz). Experimental drugs are solubilized in dimethyl sulfoxide at 400-fold the desired final maximum test concentration and stored frozen prior to use. […]
(§3) Following drug addition, the plates are incubated for an additional 48 h at 37° C., 5 % CO2, 95% air, and 100% relative humidity. […] Bound stain is subsequently solubilized with 10 mM trizma base, and the absorbance is read on an automated plate reader at a wavelength of 515 nm. […] Using the seven absorbance measurements [time zero, (Tz), control growth, (C), and test growth in the presence of drug at the five concentration levels (Ti)], the percentage growth is calculated at each of the drug concentrations levels. Percentage growth inhibition is calculated as: […]

UO-31 = experiment: NCI COMPARE panel (SRB growth inhibition), UO-31; conditions: Homo sapiens; Renal Cancer, UO-31, 48 h
Method: as §1, §2, §3

HT29 = experiment: NCI COMPARE panel (SRB growth inhibition), HT29; conditions: Homo sapiens, HT-29; Colon Cancer, HT29, 48 h
Method: as §1, §2, §3

786-0 = experiment: NCI COMPARE panel (SRB growth inhibition), 786-0; conditions: Homo sapiens; Renal Cancer, 786-0, 48 h
Method: as §1, §2, §3

NCI-H226 = experiment: NCI COMPARE panel (SRB growth inhibition), NCI-H226; conditions: Homo sapiens; Non-Small Cell Lung Cancer, NCI-H226, 48 h
Method: as §1, §2, §3

SR = experiment: NCI COMPARE panel (SRB growth inhibition), SR; conditions: Homo sapiens, Leukemia, 48 h
Method: as §1, §2, §3

RPMI-8226 = experiment: NCI COMPARE panel (SRB growth inhibition), RPMI-8226; conditions: Homo sapiens; Leukemia, RPMI-8226, 48 h
Method: as §1, §2, §3

U251 = experiment: NCI COMPARE panel (SRB growth inhibition), U251; conditions: Homo sapiens, U-251; CNS Cancer, U251, 48 h
Method: as §1, §2, §3

UACC-257 = experiment: NCI COMPARE panel (SRB growth inhibition), UACC-257; conditions: Homo sapiens; Melanoma, UACC-257, 48 h
Method: as §1, §2, §3

MDA-MB-231/ATCC = experiment: NCI COMPARE panel (SRB growth inhibition), MDA-MB-231/ATCC; conditions: Homo sapiens, Breast Cancer, 48 h
Method: as §1, §2, §3

HCT-15 = experiment: NCI COMPARE panel (SRB growth inhibition), HCT-15; conditions: Homo sapiens; Colon Cancer, HCT-15, 48 h
Method: as §1, §2, §3

NCI-H522 = experiment: NCI COMPARE panel (SRB growth inhibition), NCI-H522; conditions: Homo sapiens; Non-Small Cell Lung Cancer, NCI-H522, 48 h
Method: as §1, §2, §3

KM12 = experiment: NCI COMPARE panel (SRB growth inhibition), KM12; conditions: Homo sapiens; Colon Cancer, KM12, 48 h
Method: as §1, §2, §3

HS 578T = experiment: NCI COMPARE panel (SRB growth inhibition), HS 578T; conditions: Homo sapiens, Breast Cancer, 48 h
Method: as §1, §2, §3

MOLT-4 = experiment: NCI COMPARE panel (SRB growth inhibition), MOLT-4; conditions: Homo sapiens; Leukemia, MOLT-4, 48 h
Method: as §1, §2, §3

SK-MEL-5 = experiment: NCI COMPARE panel (SRB growth inhibition), SK-MEL-5; conditions: Homo sapiens; Melanoma, SK-MEL-5, 48 h
Method: as §1, §2, §3

M14 = experiment: NCI COMPARE panel (SRB growth inhibition), M14; conditions: Homo sapiens; Melanoma, M14, 48 h
Method: as §1, §2, §3

SF-268 = experiment: NCI COMPARE panel (SRB growth inhibition), SF-268; conditions: Homo sapiens; CNS Cancer, SF-268, 48 h
Method: as §1, §2, §3

EKVX = experiment: NCI COMPARE panel (SRB growth inhibition), EKVX; conditions: Homo sapiens, Non-Small Cell Lung Cancer, 48 h
Method: as §1, §2, §3

SK-MEL-2 = experiment: NCI COMPARE panel (SRB growth inhibition), SK-MEL-2; conditions: Homo sapiens; Melanoma, SK-MEL-2, 48 h
Method: as §1, §2, §3

NCI/ADR-RES = experiment: NCI COMPARE panel (SRB growth inhibition), NCI/ADR-RES; conditions: Homo sapiens, Ovarian Cancer, 48 h
Method: as §1, §2, §3

SN12C = experiment: NCI COMPARE panel (SRB growth inhibition), SN12C; conditions: Homo sapiens, Renal Cancer, 48 h
Method: as §1, §2, §3

| SMILES | GI50 (A549/ATCC) | GI50 (UO-31) | GI50 (HT29) | GI50 (786-0) | GI50 (NCI-H226) | GI50 (SR) | GI50 (RPMI-8226) | GI50 (U251) | GI50 (UACC-257) | GI50 (MDA-MB-231/ATCC) | GI50 (HCT-15) | GI50 (NCI-H522) | GI50 (KM12) | GI50 (HS 578T) | GI50 (MOLT-4) | GI50 (SK-MEL-5) | GI50 (M14) | GI50 (SF-268) | GI50 (EKVX) | GI50 (SK-MEL-2) | other results |
| --- | --- | --- | --- | --- | --- | --- | --- | --- | --- | --- | --- | --- | --- | --- | --- | --- | --- | --- | --- | --- | --- |
| CS(=O)(=O)Nc1cc(-c2ccc3ncnc(Nc4cccc(Cl)c4F)c3c2)cnc1Cl [Compound 6, N-[2-chloro-5-[4-(3-chloro-2-fluoro-anilino)quinazolin-6-yl]-3-pyridyl] methanesulfonamide] | 0.125 to 0.25 µM | ≤ 0.075 µM | 0.125 to 0.25 µM | 0.125 to 0.25 µM | > 0.25 µM | > 0.25 µM | 0.125 to 0.25 µM | > 0.25 µM | 0.125 to 0.25 µM | 0.125 to 0.25 µM | 0.125 to 0.25 µM | 0.125 to 0.25 µM | > 0.25 µM | ≤ 0.075 µM | 0.125 to 0.25 µM | 0.125 to 0.25 µM | 0.125 to 0.25 µM | 0.125 to 0.25 µM | 0.075 to 0.125 µM | 0.125 to 0.25 µM | GI50 (NCI/ADR-RES): > 0.25 µM; GI50 (SN12C): 0.125 to 0.25 µM |
| CS(=O)(=O)Nc1cc(-c2ccc3ncc(C#N)c(Nc4cccc(Cl)c4F)c3c2)cnc1Cl [Compound 10, N-[2-chloro-5-[4-(3-chloro-2-fluoro-anilino)-3-cyano-6-quinolyl]-3-pyridyl]methanesulfonamide] | > 0.25 µM | 0.125 to 0.25 µM | > 0.25 µM | > 0.25 µM | > 0.25 µM | ≤ 0.075 µM | ≤ 0.075 µM | ≤ 0.075 µM | > 0.25 µM | > 0.25 µM | 0.075 to 0.125 µM | > 0.25 µM | > 0.25 µM | ≤ 0.075 µM | 0.075 to 0.125 µM | ≤ 0.075 µM | > 0.25 µM | 0.075 to 0.125 µM | > 0.25 µM | ≤ 0.075 µM | GI50 (NCI/ADR-RES): > 0.25 µM; GI50 (SN12C): 0.075 to 0.125 µM |

Reference: patent US20230133958A1, “COMPOUNDS USEFUL IN MODULATING EGFR AND PI3K” (Mekanistic Therapeutics LLC, priority 2021, published 2023)
